Laboratory results from patent publication US20240287007A1, “N-(1,3,4-OXADIAZOL-2-YL)PHENYLCARBOXAMIDES AS HERBICIDES” (BAYER AKTIENGESELLSCHAFT, priority 2021, published 2024).

Experiments:
Type in all cases: in vivo
AVEFA (Avena fatua) = assay: Pre-emergence herbicidal effect against AVEFA; conditions: scored visually after 3 weeks
Description: (§1) Seeds of monocotyledonous and dicotyledonous weed plants and crop plants are laid out in sandy loam soil in wood-fiber pots and covered with soil. The compounds of the invention, formulated in the form of wettable powders (WP) or as emulsion concentrates (EC), are then applied to the surface of the covering soil as aqueous suspension or emulsion at a water application rate equating to 600 to 800 l/ha with addition of 0.2% wetting agent. After the treatment, the pots are placed in a greenhouse and kept under good growth conditions for the trial plants. The damage to the test plants is scored visually after a test period of 3 weeks by comparison with untreated controls (herbicidal activity in percent (%): 100% activity=the plants have died, 0% activity=like control plants).

LOLRI (Lolium rigidum) [1] = assay: Pre-emergence herbicidal effect against LOLRI; conditions: scored visually after 3 weeks
Description: as §1

KCHSC (Kochia scoparia) [2] = assay: Pre-emergence herbicidal effect against KCHSC; conditions: scored visually after 3 weeks
Description: as §1

[3] = system: MATIN (Matricaria inodora); assay: Post-emergence herbicidal action against MATIN; conditions: visual assessment after about 3 weeks
Procedure: (§2) Seeds of monocotyledonous and dicotyledonous weed and crop plants are laid out in sandy loam soil in wood-fiber pots, covered with soil and cultivated in a greenhouse under good growth conditions. 2 to 3 weeks after sowing, the trial plants are treated at the one-leaf stage. The compounds of the invention, formulated in the form of wettable powders (WP) or as emulsion concentrates (EC), are then sprayed onto the green parts of the plants as aqueous suspension or emulsion at a water application rate equating to 600 to 800 l/ha with addition of 0.2% wetting agent. After the test plants have been left to stand in the greenhouse under optimal growth conditions for about 3 weeks, the action of the preparations is assessed visually in comparison to untreated controls (herbicidal action in percent (%): 100% activity=the plants have died, 0% activity=like control plants).

[4] = system: ABUTH (Abutylon threophrasti); assay: Post-emergence herbicidal action against ABUTH; conditions: visual assessment after about 3 weeks
Procedure: as §2

[5] = system: MATIN (Matricaria inodora); assay: Pre-emergence herbicidal effect against MATIN; conditions: scored visually after 3 weeks
Description: as §1

SETVI (Setaria viridis) [6] = assay: Post-emergence herbicidal action against SETVI; conditions: visual assessment after about 3 weeks
Procedure: as §2

VERPE (Veronica persica) [7] = assay: Post-emergence herbicidal action against VERPE; conditions: visual assessment after about 3 weeks
Procedure: as §2

[8] = system: ECHCG (Echinochloa crus-galli); assay: Pre-emergence herbicidal effect against ECHCG; conditions: scored visually after 3 weeks
Description: as §1

VIOTR (Viola tricolor) [9] = assay: Post-emergence herbicidal action against VIOTR; conditions: visual assessment after about 3 weeks
Procedure: as §2

[10] = system: DIGSA (Digitaria sanguinalis); assay: Pre-emergence herbicidal effect against DIGSA; conditions: scored visually after 3 weeks
Description: as §1

KCHSC (Kochia scoparia) [11] = assay: Post-emergence herbicidal action against KCHSC; conditions: visual assessment after about 3 weeks
Procedure: as §2

LOLRI (Lolium rigidum) [12] = assay: Post-emergence herbicidal action against LOLRI; conditions: visual assessment after about 3 weeks
Procedure: as §2

[13] = system: PHBPU (Pharbitis purpurea); assay: Post-emergence herbicidal action against PHBPU; conditions: visual assessment after about 3 weeks
Procedure: as §2

[14] = system: ALOMY (Alopecurus myosuroides); assay: Pre-emergence herbicidal effect against ALOMY; conditions: scored visually after 3 weeks
Description: as §1

[15] = system: POLCO (Polygonum convolvulus); assay: Pre-emergence herbicidal effect against POLCO; conditions: scored visually after 3 weeks
Description: as §1

[16] = system: ABUTH (Abutylon threophrasti); assay: Pre-emergence herbicidal effect against ABUTH; conditions: 80 g/ha, scored visually after 3 weeks
Description: as §1

[17] = system: POLCO (Polygonum convolvulus); assay: Post-emergence herbicidal action against POLCO; conditions: visual assessment after about 3 weeks
Procedure: as §2

[18] = system: AMARE (Amaranthus retroflexus); assay: Pre-emergence herbicidal effect against AMARE; conditions: scored visually after 3 weeks
Description: as §1

[19] = system: AMARE (Amaranthus retroflexus); assay: Post-emergence herbicidal action against AMARE; conditions: visual assessment after about 3 weeks
Procedure: as §2

VIOTR (Viola tricolor) [20] = assay: Pre-emergence herbicidal effect against VIOTR; conditions: scored visually after 3 weeks
Description: as §1

SETVI (Setaria viridis) [21] = assay: Pre-emergence herbicidal effect against SETVI; conditions: scored visually after 3 weeks
Description: as §1

[22] = system: ALOMY (Alopecurus myosuroides); assay: Post-emergence herbicidal action against ALOMY; conditions: visual assessment after about 3 weeks
Procedure: as §2

VERPE (Veronica persica) [23] = assay: Pre-emergence herbicidal effect against VERPE; conditions: scored visually after 3 weeks
Description: as §1

[24] = system: PHBPU (Pharbitis purpurea); assay: Pre-emergence herbicidal effect against PHBPU; conditions: 80 g/ha, scored visually after 3 weeks
Description: as §1

[25] = system: DIGSA (Digitaria sanguinalis); assay: Post-emergence herbicidal action against DIGSA; conditions: visual assessment after about 3 weeks
Procedure: as §2

SMILES: C[S+]([O-])c1c(OC(F)(F)F)ccc(C(=O)Nc2nnco2)c1Cl (racemic) [Example 1-32, 2-chloro-3-(methylsulfinyl)-N-(1,3,4-oxadiazol-2-yl)-4-(trifluoromethoxy)benzamide]
- Pre-emergence effect at 20 g/ha against AVEFA in % (AVEFA (Avena fatua); 20 g/ha): 80%
- Pre-emergence effect at 80 g/ha against A VEFA in % (AVEFA (Avena fatua); 80 g/ha): 100%
- Pre-emergence effect at 20 g/ha against LOLRI in % (LOLRI (Lolium rigidum) [1]; 20 g/ha): 90%
- Pre-emergence effect at 80 g/ha against LOLRI in % (LOLRI (Lolium rigidum) [1]; 80 g/ha): 90%
- Pre-emergence effect at 20 g/ha against KCHSC in % (KCHSC (Kochia scoparia) [2]; 20 g/ha): 100%
- Pre-emergence effect at 80 g/ha against KCHSC in % (KCHSC (Kochia scoparia) [2]; 80 g/ha): 100%
- Post-emergence effect at 20 g/ha against MATIN in % ([3]; 20 g/ha): 100%
- Post-emergence effect at 80 g/ha against MATIN in % ([3]; 80 g/ha): 100%
- Post-emergence effect at 20 g/ha against ABUTH in % ([4]; 20 g/ha): 90%
- Post-emergence effect at 80 g/ha against ABUTH in % ([4]; 80 g/ha): 100%
- Pre-emergence effect at 20 g/ha against MATIN in % ([5]; 20 g/ha): 100%
- Pre-emergence effect at 80 g/ha against MATIN in % ([5]; 80 g/ha): 100%
- Post-emergence effect at 20 g/ha against SETVI in % (SETVI (Setaria viridis) [6]; 20 g/ha): 100%
- Post-emergence effect at 80 g/ha against SETVI in % (SETVI (Setaria viridis) [6]; 80 g/ha): 100%
- Post-emergence effect at 20 g/ha against VERPE in % (VERPE (Veronica persica) [7]; 20 g/ha): 90%
- Post-emergence effect at 80 g/ha against VERPE in % (VERPE (Veronica persica) [7]; 80 g/ha): 100%
- Pre-emergence effect at 20 g/ha against ECHCG in % ([8]; 20 g/ha): 100%
- Pre-emergence effect at 80 g/ha against ECHCG in % ([8]; 80 g/ha): 100%
- Post-emergence effect at 20 g/ha against VIOTR in % (VIOTR (Viola tricolor) [9]; 20 g/ha): 100%
- Post-emergence effect at 80 g/ha against VIOTR in % (VIOTR (Viola tricolor) [9]; 80 g/ha): 100%
- Pre-emergence effect at 20 g/ha against DIGSA in % ([10]; 20 g/ha): 100%
- Pre-emergence effect at 80 g/ha against DIGSA in % ([10]; 80 g/ha): 100%
- Post-emergence effect at 20 g/ha against KCHSC in % (KCHSC (Kochia scoparia) [11]; 20 g/ha): 100%
- Post-emergence effect at 80 g/ha against KCHSC in % (KCHSC (Kochia scoparia) [11]; 80 g/ha): 100%
- Post-emergence effect at 80 g/ha against LOLRI in % (LOLRI (Lolium rigidum) [12]): 90%
- Post-emergence effect at 20 g/ha against PHBPU in % ([13]; 20 g/ha): 90%
- Post-emergence effect at 80 g/ha against PHBPU in % ([13]; 80 g/ha): 100%
- Pre-emergence effect at 20 g/ha against ALOMY in % ([14]; 20 g/ha): 80%
- Pre-emergence effect at 80 g/ha against ALOMY in % ([14]; 80 g/ha): 100%
- Pre-emergence effect at 20 g/ha against POLCO in % ([15]; 20 g/ha): 90%
- Pre-emergence effect at 80 g/ha against POLCO in % ([15]; 80 g/ha): 90%
- Pre-emergence effect at 80 g/ha against ABUTH in % [16]: 100%
- Post-emergence effect at 20 g/ha against POLCO in % ([17]; 20 g/ha): 90%
- Post-emergence effect at 80 g/ha against POLCO in % ([17]; 80 g/ha): 100%
- Pre-emergence effect at 20 g/ha against AMARE in % ([18]; 20 g/ha): 100%
- Pre-emergence effect at 80 g/ha against AMARE in % ([18]; 80 g/ha): 100%
- Post-emergence effect at 20 g/ha against AMARE in % ([19]; 20 g/ha): 100%
- Post-emergence effect at 80 g/ha against AMARE in % ([19]; 80 g/ha): 100%
- Pre-emergence effect at 20 g/ha against VIOTR in % (VIOTR (Viola tricolor) [20]; 20 g/ha): 100%
- Pre-emergence effect at 80 g/ha against VIOTR in % (VIOTR (Viola tricolor) [20]; 80 g/ha): 100%
- Pre-emergence effect at 20 g/ha against SETVI in % (SETVI (Setaria viridis) [21]; 20 g/ha): 90%
- Pre-emergence effect at 80 g/ha against SETVI in % (SETVI (Setaria viridis) [21]; 80 g/ha): 100%
- Post-emergence effect at 20 g/ha against ALOMY in % ([22]; 20 g/ha): 80%
- Post-emergence effect at 80 g/ha against ALOMY in % ([22]; 80 g/ha): 90%
- Pre-emergence effect at 20 g/ha against VERPE in % (VERPE (Veronica persica) [23]; 20 g/ha): 80%
- Pre-emergence effect at 80 g/ha against VERPE in % (VERPE (Veronica persica) [23]; 80 g/ha): 90%
- Pre-emergence effect at 80 g/ha against PHBPU in % [24]: 90%
- Post-emergence effect at 20 g/ha against DIGSA in % ([25]; 20 g/ha): 90%
- Post-emergence effect at 80 g/ha against DIGSA in % ([25]; 80 g/ha): 90%
